Data: patent US9820943B2, “Micronized amoxicillin” (DSM SINOCHEM PHARMACEUTICALS NETHERLANDS B.V., priority 2013, dated 2017)

What was measured:
Assay type in all cases: physicochemical
[1] = Specific powder surface area by nitrogen gas sorption (BET); conditions: triplicate, trihydrate
Description: Specific powder surface area was determined using nitrogen gas sorption (Smartsorb, Smart Instruments, Mumbai, India). Prior to measurements, samples were regenerated by degassing to remove moisture and contamination. The regenerated sample was dipped in liquid nitrogen and the quantity of the adsorbed gas was measured using a thermal conductivity detector and subsequently integrated using an electronic circuit in terms of counts. The instrument was calibrated by injecting a known quantity of nitrogen. The measured parameters were subsequently used to calculate the surface area of the sample by employing the adsorption theories of Brunauer, Emmett and Teller (BET).
(§1) Parameters operated were: • Augar Speed: 5-90 rpm • Primary Air Pressure: 2-8 kg·cm^−2 • Secondary Air Pressure: 4-10 kg·cm^−2 The surface area (in triplicate), average particle size and contact angle (in quadruplicate) were determined as outlined in the General section. The purity of the amoxicillin trihydrate samples was 99.4±0.3% and were void of dichloromethane, isopropanol, pivalic acid and triethyl amine.

[2] = Particle size distribution by laser diffraction (Malvern); conditions: trihydrate
Description: Particle size distribution values D10, D50, D90 and D100 were determined using laser diffraction applying Malvern equipment. A suitable apparatus for determining D10, D50, D90 and D100 is a Malvern particle sizer 2600 C or a Malvern Zeta Sizer.
as §1

[3] = Contact angle by sessile drop method (water); conditions: ambient conditions, trihydrate
Description: Contact angles of amoxicillin trihydrate powder samples were measured by the sessile drop method using an Drop Shape Analyzer instrument (FTA 1000, First Ten Angstrom, Virginia, USA). Powder samples were mounted on double sided adhesive tape adhered to a glass slide and excess powder was removed by tapping the slide. A drop of probe liquid (water) was dispersed onto the sample surface and video images were captured by the FTA image analyzer. The contact angle was calculated by the instrument by fitting a mathematical expression to the shape of the drop followed by calculating the slope of the tangent to the drop at the liquid-solid-vapor interface line. The surface tension of ultrapure ELGA laboratory water was measured to be 73±0.5 mN·m^−1 at 25° C. All measurements were performed in air under ambient conditions and an average of four measurements was reported in the below Examples.
as §1

[4] = Powder dissolution, USP/NF paddle method with HPLC analysis; conditions: 500 mg in 900 mL water, 37 °C, 75 rpm; for Amoxicillin released in solution Mean: mean of 3; for Amoxicillin released in solution #1: replicate #1; for Amoxicillin released in solution #2: replicate #2; for Amoxicillin released in solution #3: replicate #3
Description: Dissolution analysis of amoxicillin trihydrate powder samples was carried out using the USP/NF paddle method at a rotational speed of 75 rpm. Ultrapure ELGA laboratory water (900 mL) was used as dissolution medium. Media were equilibrated to 37.0±0.5° C. prior to dissolution. Amoxicillin trihydrate sample powder (500 mg) was directly added to the dissolution apparatus (Electrolab USP-24, India). Samples were collected at 0, 1, 3, 5, 10, 15, 30, 60 and 90 min, filtered through 0.2 μm filters and analyzed by HPLC. Dissolution profiles were constructed by plotting the percentage amoxicillin released against time.
The HPLC system (Shimadzu Corporation, Kyoto, Japan) comprised of an SCL-10A VP system controller, LC-10AT VP liquid chromatograph, FCV-10AL VP flow control valve, DGU-14A degasser, SIL-10AD VP auto-injector, CTO-10AS VP column oven, SPD-M20A prominence diode array (PDA) detector and data acquisition Class-VP 6.10 software. The HPLC method was adopted from the United States Pharmacopoeia (USP). The method was validated for linearity, precision, accuracy and intra- and inter-day variability. The mobile phase was 50 mM monobasic potassium phosphate:methanol (96:4, v/v, pH 5.0). All analyses were carried out using Lichrospher® 100 RP-18e analytical column (5 μm, Merck KGaA, Darmstadt, Germany) under isocratic conditions at a flow rate of 1.0 mL·min^−1 at 25° C. with 20 μL injection volume. Effluent was monitored at a wavelength of 230 nm. Samples for calibration curve generation were prepared in 50 mM monobasic potassium phosphate:methanol 1:1 (v/v) proportion at a concentration range of 1 to 600 μg·mL^−1.
The three non-micronized (i.e. entries 1-3 of Table 1) and micronized (i.e. entries 4-6 of Table 1) amoxicillin trihydrate samples of Example 1 were subjected to a powder dissolution test (in triplicate) as outlined in the General section.

## CC1(C)S[C@@H]2[C@H](NC(=O)[C@H](N)c3ccc(O)cc3)C(=O)N2[C@H]1C(=O)O.O.O.O [entry 5, amoxicillin trihydrate]
[1]
  Surface Area Mean ± SD (n = 3): 2.03 ± 0.15 m^2 · g^−1
[2]
  Average Particle Size D10: 1.9 μm
  Average Particle Size D50: 10.0 μm
  Average Particle Size D90: 22.5 μm
  Average Particle Size D100: 44.3 μm
[3]
  Contact Angle Mean ± SD (n = 4): 97.89 ± 1.22
[4]; 0 min
  Amoxicillin released in solution Mean: 0%
  Amoxicillin released in solution #1: 0%
  Amoxicillin released in solution #2: 0%
  Amoxicillin released in solution #3: 0%
[4]; 1 min, trihydrate
  Amoxicillin released in solution Mean: 59.93%
  Amoxicillin released in solution #1: 58.56%
  Amoxicillin released in solution #2: 62.91%
  Amoxicillin released in solution #3: 58.32%
[4]; 3 min, trihydrate
  Amoxicillin released in solution Mean: 77.98%
  Amoxicillin released in solution #1: 78.61%
  Amoxicillin released in solution #2: 80.12%
  Amoxicillin released in solution #3: 75.20%
[4]; 5 min, trihydrate
  Amoxicillin released in solution Mean: 82.14%
  Amoxicillin released in solution #1: 83.91%
  Amoxicillin released in solution #2: 82.77%
  Amoxicillin released in solution #3: 79.73%
[4]; 10 min, trihydrate
  Amoxicillin released in solution Mean: 86.84%
  Amoxicillin released in solution #1: 89.18%
  Amoxicillin released in solution #2: 88.59%
  Amoxicillin released in solution #3: 82.76%
[4]; 15 min, trihydrate
  Amoxicillin released in solution Mean: 89.32%
  Amoxicillin released in solution #1: 90.98%
  Amoxicillin released in solution #2: 92.05%
  Amoxicillin released in solution #3: 84.94%
[4]; 30 min, trihydrate
  Amoxicillin released in solution Mean: 96.72%
  Amoxicillin released in solution #1: 94.78%
  Amoxicillin released in solution #2: 99.20%
  Amoxicillin released in solution #3: 96.17%
[4]; 60 min, trihydrate
  Amoxicillin released in solution Mean: 97.60%
  Amoxicillin released in solution #1: 97.29%
  Amoxicillin released in solution #2: 99.86%
  Amoxicillin released in solution #3: 95.65%
[4]; 90 min, trihydrate
  Amoxicillin released in solution Mean: 99.15%
  Amoxicillin released in solution #1: 99.33%
  Amoxicillin released in solution #2: 99.64%
  Amoxicillin released in solution #3: 98.47%

## CC1(C)S[C@@H]2[C@H](NC(=O)[C@H](N)c3ccc(O)cc3)C(=O)N2[C@H]1C(=O)O.O.O.O [entry 6, amoxicillin trihydrate]
[1]
  Surface Area Mean ± SD (n = 3): 1.69 ± 0.07 m^2 · g^−1
[2]
  Average Particle Size D10: 1.9 μm
  Average Particle Size D50: 10.0 μm
  Average Particle Size D90: 22.4 μm
  Average Particle Size D100: 38.9 μm
[3]
  Contact Angle Mean ± SD (n = 4): 107.84 ± 1.72
[4]; 0 min
  Amoxicillin released in solution Mean: 0%
  Amoxicillin released in solution #1: 0%
  Amoxicillin released in solution #2: 0%
  Amoxicillin released in solution #3: 0%
[4]; 1 min, trihydrate
  Amoxicillin released in solution Mean: 70.68%
  Amoxicillin released in solution #1: 70.98%
  Amoxicillin released in solution #2: 72.37%
  Amoxicillin released in solution #3: 68.67%
[4]; 3 min, trihydrate
  Amoxicillin released in solution Mean: 79.56%
  Amoxicillin released in solution #1: 82.73%
  Amoxicillin released in solution #2: 76.25%
  Amoxicillin released in solution #3: 79.68%
[4]; 5 min, trihydrate
  Amoxicillin released in solution Mean: 82.60%
  Amoxicillin released in solution #1: 84.40%
  Amoxicillin released in solution #2: 78.46%
  Amoxicillin released in solution #3: 84.94%
[4]; 10 min, trihydrate
  Amoxicillin released in solution Mean: 85.67%
  Amoxicillin released in solution #1: 85.63%
  Amoxicillin released in solution #2: 82.85%
  Amoxicillin released in solution #3: 88.53%
[4]; 15 min, trihydrate
  Amoxicillin released in solution Mean: 88.11%
  Amoxicillin released in solution #1: 87.94%
  Amoxicillin released in solution #2: 85.45%
  Amoxicillin released in solution #3: 90.95%
[4]; 30 min, trihydrate
  Amoxicillin released in solution Mean: 96.85%
  Amoxicillin released in solution #1: 96.08%
  Amoxicillin released in solution #2: 96.66%
  Amoxicillin released in solution #3: 97.81%
[4]; 60 min, trihydrate
  Amoxicillin released in solution Mean: 99.37%
  Amoxicillin released in solution #1: 99.56%
  Amoxicillin released in solution #2: 98.85%
  Amoxicillin released in solution #3: 99.69%
[4]; 90 min, trihydrate
  Amoxicillin released in solution Mean: 98.76%
  Amoxicillin released in solution #1: 97.01%
  Amoxicillin released in solution #2: 99.48%
  Amoxicillin released in solution #3: 99.78%
